Test results: PubChem BioAssay AID248 (DTP/NCI, 2004)
Where “and” joins values, the source holds several entries; their conditions need not be identical. Identical values can stand only once. Toxic doses and inconclusive results are not listed. No stated cut-off is given here; in the data, active means T/C of 150% or more; inactive means T/C below 125%.

Tested on: L1210 leukemia ip in BDF1 mice, survival T/C
Test: NCI In Vivo Anticancer Drug Screen. Data for tumor model L1210 Leukemia (intraperitoneal) in B6D2F1 (BDF1) mice
Conditions: endpoint: mean survival time, higher = longer survival
Summary of the method: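 Each compound was tested against a transplantable tumor grown in mice. The endpoint was survival, with treated animals benchmarked against vehicle controls as a simple ratio.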

[1] = dose: 100.0 mg/kg/injection, schedule: Q04DX003 (ip), vehicle: Klucel (hydroxypropylcellulose) (HPC)
[2] = dose: 200.0 mg/kg/injection, schedule: Q04DX003 (ip), vehicle: Klucel (hydroxypropylcellulose) (HPC)
[3] = dose: 100.0 mg/kg/injection, schedule: Q04DX002 (ip), vehicle: Klucel (hydroxypropylcellulose) (HPC)
[4] = dose: 100.0 mg/kg/injection, schedule: Q04DX003 (ip), vehicle: saline with Tween-80
[5] = dose: 400.0 mg/kg/injection, schedule: Q04DX003 (ip), vehicle: saline with Tween-80
[6] = dose: 100.0 mg/kg/injection, schedule: Q01DX009 (ip), vehicle: saline
[7] = dose: 100.0 mg/kg/injection, schedule: Q04DX003 (ip), vehicle: saline
[8] = dose: 200.0 mg/kg/injection, schedule: Q01DX009 (ip), vehicle: saline
[9] = dose: 200.0 mg/kg/injection, schedule: Q04DX003 (ip), vehicle: saline
[10] = dose: 400.0 mg/kg/injection, schedule: Q01DX009 (ip), vehicle: saline
[11] = dose: 400.0 mg/kg/injection, schedule: Q04DX003 (ip), vehicle: saline
[12] = dose: 100.0 mg/kg/injection, schedule: Q01DX001 (ip), vehicle: saline

Measured: T/C

C=CCC1(CC)C(=O)NC(=O)NC1=O
inactive: dose: 50.0 mg/kg/injection, schedule: Q01DX009 (ip), vehicle: saline sonified 102 % of control | dose: 100.0 mg/kg/injection, schedule: Q01DX009 (ip), vehicle: saline sonified 110 % of control | [1] 94 % of control | dose: 200.0 mg/kg/injection, schedule: Q01DX009 (ip), vehicle: saline sonified 108 % of control | [2] 94 % of control

c1ccc(-c2cncc(CNCc3cncc(-c4ccccc4)c3)c2)cc1
inactive: dose: 100.0 mg/kg/injection, schedule: Q01DX001 (ip), vehicle: Klucel (hydroxypropylcellulose) (HPC) 102 % of control | dose: 200.0 mg/kg/injection, schedule: Q01DX001 (ip), vehicle: Klucel (hydroxypropylcellulose) (HPC) 95 % of control | dose: 400.0 mg/kg/injection, schedule: Q01DX001 (ip), vehicle: Klucel (hydroxypropylcellulose) (HPC) 110 % of control

CC#CCCC(=O)OCC
inactive: [3] 104 % of control | dose: 200.0 mg/kg/injection, schedule: Q04DX002 (ip), vehicle: Klucel (hydroxypropylcellulose) (HPC) 106 % of control | dose: 400.0 mg/kg/injection, schedule: Q04DX002 (ip), vehicle: Klucel (hydroxypropylcellulose) (HPC) 95 % of control

Clc1ccc(C[P+](c2ccccc2)(c2ccccc2)c2ccccc2)c(Cl)c1
inactive: dose: 4.5 mg/kg/injection, schedule: Q01DX009 (ip), vehicle: saline 109 % of control | dose: 6.25 mg/kg/injection, schedule: Q01DX009 (ip), vehicle: saline with Tween-80 100 % of control | dose: 9.0 mg/kg/injection, schedule: Q01DX009 (ip), vehicle: saline 106 % of control | dose: 9.38 mg/kg/injection, schedule: Q01DX001 (ip), vehicle: water 100 % of control | dose: 12.5 mg/kg/injection, schedule: Q01DX009 (ip), vehicle: saline with Tween-80 94 % of control

NC(N)=Nc1ccc(C(=O)Oc2ccc(OC(=O)c3cccc(N=C(N)N)c3)cc2)cc1
inactive: dose: 50.0 mg/kg/injection, schedule: Q01DX009 (ip), vehicle: water 96 % of control | dose: 50.0 mg/kg/injection, schedule: Q04DX003 (ip), vehicle: water 90 % of control | dose: 100.0 mg/kg/injection, schedule: Q01DX009 (ip), vehicle: water 98 % of control | dose: 100.0 mg/kg/injection, schedule: Q04DX003 (ip), vehicle: water 93 % of control and 97 % of control | dose: 200.0 mg/kg/injection, schedule: Q01DX009 (ip), vehicle: water 92 % of control | dose: 200.0 mg/kg/injection, schedule: Q04DX003 (ip), vehicle: water 98 % of control and 100 % of control | dose: 400.0 mg/kg/injection, schedule: Q04DX003 (ip), vehicle: water 93 % of control and 95 % of control

COc1cc(C=Nc2ccc(Cl)cc2)ccc1N(CCCl)CCCl
inactive: dose: 21.0 mg/kg/injection, schedule: Q01DX015 (ip), vehicle: carboxymethylcellulose (CMC) 110 % of control | dose: 36.0 mg/kg/injection, schedule: Q01DX015 (ip), vehicle: carboxymethylcellulose (CMC) 95 % of control | dose: 50.0 mg/kg/injection, schedule: Q01DX001 (ip), vehicle: carboxymethylcellulose (CMC) 120 % of control | dose: 100.0 mg/kg/injection, schedule: Q01DX001 (ip), vehicle: carboxymethylcellulose (CMC) 108 % of control | dose: 133.0 mg/kg/injection, schedule: Q01DX001 (ip), vehicle: carboxymethylcellulose (CMC) 107 % of control | dose: 200.0 mg/kg/injection, schedule: Q01DX001 (ip), vehicle: carboxymethylcellulose (CMC) 117 % of control

COC(=O)CCC(=O)Nc1ccccc1C(C)=O
inactive: [4] 104 % of control | dose: 200.0 mg/kg/injection, schedule: Q04DX003 (ip), vehicle: saline with Tween-80 93 % of control | [5] 93 % of control

COC(=O)C(N)Cc1ccc(O)c(O)c1 (stereo unspecified)
inactive: [6] 110 % of control | [7] 102 % of control | [8] 112 % of control | [9] 98 % of control | [10] 112 % of control | [11] 102 % of control

Br[C](Br)(Br)[Hg][c]1ccccc1
inactive: dose: 6.0 mg/kg/injection, schedule: Q01DX009 (ip), vehicle: Klucel (hydroxypropylcellulose) (HPC) 98 % of control | dose: 12.5 mg/kg/injection, schedule: Q01DX009 (ip), vehicle: Klucel (hydroxypropylcellulose) (HPC) 93 % of control | dose: 12.5 mg/kg/injection, schedule: Q04DX003 (ip), vehicle: Klucel (hydroxypropylcellulose) (HPC) 110 % of control | dose: 25.0 mg/kg/injection, schedule: Q01DX009 (ip), vehicle: Klucel (hydroxypropylcellulose) (HPC) 87 % of control | dose: 25.0 mg/kg/injection, schedule: Q04DX003 (ip), vehicle: Klucel (hydroxypropylcellulose) (HPC) 95 % of control

Nc1nc(N)nc(-c2ccc(Cl)cc2)n1
inactive: dose: 25.0 mg/kg/injection, schedule: Q01DX001 (ip), vehicle: saline with Tween-80 96 % of control | dose: 50.0 mg/kg/injection, schedule: Q01DX001 (ip), vehicle: saline with Tween-80 98 % of control | dose: 100.0 mg/kg/injection, schedule: Q01DX001 (ip), vehicle: saline with Tween-80 101 % of control

CC1C(N)CC2CC1C2(C)C (stereo unspecified)
inactive: dose: 12.5 mg/kg/injection, schedule: Q04DX002 (ip), vehicle: saline 113 % of control | dose: 25.0 mg/kg/injection, schedule: Q04DX002 (ip), vehicle: saline 102 % of control | dose: 50.0 mg/kg/injection, schedule: Q04DX002 (ip), vehicle: saline 102 % of control

COC(=O)N1C(C)=CC=CC=C1C
inactive: dose: 12.5 mg/kg/injection, schedule: Q04DX002 (ip), vehicle: Klucel (hydroxypropylcellulose) (HPC) 94 % of control | dose: 25.0 mg/kg/injection, schedule: Q04DX002 (ip), vehicle: Klucel (hydroxypropylcellulose) (HPC) 88 % of control | dose: 50.0 mg/kg/injection, schedule: Q04DX002 (ip), vehicle: Klucel (hydroxypropylcellulose) (HPC) 98 % of control | [3] 100 % of control

Cc1cc(N(CCCOS(C)(=O)=O)CCCOS(C)(=O)=O)ccc1C=Nc1ccc2ccccc2c1
inactive: dose: 25.0 mg/kg/injection, schedule: Q04DX003 (ip), vehicle: saline with Tween-80 98 % of control | dose: 50.0 mg/kg/injection, schedule: Q04DX003 (ip), vehicle: saline with Tween-80 98 % of control | [4] 98 % of control | [5] 93 % of control

ClCCC1CNCCN1 (stereo unspecified)
inactive: [6] 87 % of control | [7] 96 % of control | [8] 89 % of control | [9] 96 % of control | [10] 89 % of control | [11] 103 % of control

Cc1cc2nc(C)c(=O)[nH]c2cc1C
inactive: dose: 100.0 mg/kg/injection, schedule: Q01DX009 (ip), vehicle: Klucel (hydroxypropylcellulose) (HPC) 95 % of control | [1] 96 % of control | dose: 200.0 mg/kg/injection, schedule: Q01DX009 (ip), vehicle: Klucel (hydroxypropylcellulose) (HPC) 98 % of control | [2] 92 % of control | dose: 400.0 mg/kg/injection, schedule: Q01DX009 (ip), vehicle: Klucel (hydroxypropylcellulose) (HPC) 91 % of control | dose: 400.0 mg/kg/injection, schedule: Q04DX003 (ip), vehicle: Klucel (hydroxypropylcellulose) (HPC) 92 % of control

COC(=O)c1cn[nH]c1N1CC[N+](CCCl)=N1
inactive: dose: 25.0 mg/kg/injection, schedule: Q01DX009 (ip), vehicle: saline 97 % of control | dose: 25.0 mg/kg/injection, schedule: Q04DX003 (ip), vehicle: saline 102 % of control | dose: 50.0 mg/kg/injection, schedule: Q01DX009 (ip), vehicle: saline 106 % of control | dose: 50.0 mg/kg/injection, schedule: Q04DX003 (ip), vehicle: saline 104 % of control | [12] 100 % of control | [7] 104 % of control

O=[N+]([O-])c1ccc(OC(=S)Cl)cc1
inactive: dose: 6.25 mg/kg/injection, schedule: Q04DX002 (ip), vehicle: saline with Tween-80 99 % of control | dose: 12.5 mg/kg/injection, schedule: Q04DX002 (ip), vehicle: saline with Tween-80 101 % of control | dose: 25.0 mg/kg/injection, schedule: Q04DX002 (ip), vehicle: saline with Tween-80 96 % of control | [4] 103 % of control

CCCC1(c2ccccc2)NC(=O)NC1=O (stereo unspecified)
inactive: [12] 96 % of control | dose: 200.0 mg/kg/injection, schedule: Q01DX001 (ip), vehicle: saline 102 % of control
